Assay results as given in article PMC3388044, “Probing of Exosites Leads to Novel Inhibitor Scaffolds of HCV NS3/4A Proteinase” (PLoS ONE, 2012).

What was measured:
Huh7 ET cells = settings: for CC50: read-out: HCV replicon CC50, concentration reducing cell viability by 50%, 72 h; for CC90: read-out: HCV replicon CC90, concentration reducing cell viability by 90%, 72 h
Procedure: Both cell toxicity and HCV replicon inhibition assays were performed in triplicate in wells of a 96-well flat-bottom, white-wall plates (E&K Scientific, Santa Clara, CA) by the Drug Development Division, Southern Research Institute (SRI; Birmingham, AL). […] Prior to the assays, sub-confluent Huh7 ET cultures were seeded in wells of a 96-well plate. Following a 24 h incubation at 37°C in a 5% CO2 incubator, increasing concentrations of the compounds were added to the wells and incubation was continued for an additional 72 h. […] Human interferon α2b was used as a control. The cellular replicon-derived luciferase activity was measured using the Steady-Glo Luciferase Assay System (Promega, Fitchburg, WI) and a fluorescence spectrophotometer. Cytotoxicity of compounds was measured using the CytoTox-ONE Homogeneous Membrane Integrity Assay (Promega). The IC50 and IC90 values of the compounds (compound concentrations inhibiting the replicon by 50% and 90%, respectively) as well as CC50 and CC90 (compound concentration decreasing cell viability by 50% and 90%, respectively) were calculated using GraphPad Prism.

NS3/4A A156T [1] = biological target: T1, NS3/4A A156T (Hepatitis C virus genotype 1b, UniProt O92972, A1182T); format: biochemical, HCV genotype 1b, strain HC-J4; settings: for IC50: recombinant A156T mutant, FRET peptide substrate; for effect of A156T resistance mutation on efficacy: in contrast with boceprevir and telaprevir
T1 construct: The NS3/4A construct represented the individual NS3 proteinase domain N-terminally fused with an NS4A co-factor; 6xHis; purchased AnaSpec (Fremont, CA)
Description: (§1) Reagents were purchased from Sigma unless indicated otherwise. The FRET substrate Ac-DE-D(Edans)-EE-Abu-ψ-[COO]-AS-K(Dabsyl)-NH2, purified recombinant wild-type NS3/4A from HCV genotype 1b, strain HC-J4, and the mutants with the V36M, R155K, A156T, D168A and V170A resistance mutations were from AnaSpec (Fremont, CA). The NS3/4A construct represented the individual NS3 proteinase domain N-terminally fused with an NS4A co-factor and tagged with a 6xHis tag. […] Pyroglutamic acid-Arg-Thr-Lys-Arg-7-amino-4-methylcoumarin was from Peptides International (Louisville, KY). West Nile virus NS2B-NS3 proteinase (strain NY99) was expressed, purified and refolded to restore its functional activity as described earlier. The pET15b-Den2-CF40-Gly-NS3pro 185 plasmid encoding the Dengue virus type 2 NS2B-NS3 protease was a kind gift of Dr. Subhash Vasudevan (Program in Emerging Infectious Diseases, DUKE-NUS Graduate Medical School, Singapore). DV NS2B-NS3 proteinase was expressed purified and refolded to restore its functional activity as described previously, [70]. The expression of the soluble C-terminally truncated human furin construct in Sf9 insect cells (an ovarian cell line from fall armyworm Spodoptera frugiperda; Invitrogen, Carlsbad, CA) infected with the recombinant baculovirus and purification of soluble furin from the medium were described earlier. Original human hepatocarcinoma Huh7 cells were obtained from ATCC (Manassas, VA).
(§2) The NS3/4A activity assay was performed at 37°C in triplicate in wells of a 96-well plate in 0.2 ml 50 mM HEPES, pH 7.5, containing 100 mM NaCl, 10 mM DTT, 20% glycerol, the Ac-DE-D(Edans)-EE-Abu-ψ-[COO]-AS-K(Dabsyl)-NH2 substrate (10 µM) and the NS3/4A enzyme (10 nM). Reaction velocity was monitored continuously at λex = 355 nm and λem = 500 nm for 10 min using a Spectramax Gemini EM fluorescence spectrophotometer (Molecular Devices, Sunnyvale, CA) and the initial rate of reaction v was recorded for each reaction. […] Compound stock solutions (10 mM) were made in 100% DMSO. Stocks were then diluted using the assay buffer. As a result, the final DMSO concentration was always below 1% in the assay reactions.
(§3) To measure the inhibitory potency of the compounds, their increasing concentrations were pre-incubated with the individual proteinases in the corresponding buffer for 30 min at ambient temperature. At least, 7–9 different concentrations were used for each inhibitor. The residual activity of the enzymes was then measured as above. The IC50 values of the inhibitory compounds were calculated by determining the concentrations of the compounds needed to inhibit 50% of the enzyme activity against the peptide substrate. GraphPad Prism was used as fitting software.

NS3/4A A156T [2] = format: biochemical, HCV genotype 1b, strain HC-J4; settings: fold change in IC50 for the mutant compared to WT
Description: as §1, §2, §3

NS3/4A D168A [3] = biological target: T2, NS3/4A D168A (Hepatitis C virus genotype 1b, UniProt O92972, D1194A); format: biochemical, HCV genotype 1b, strain HC-J4; settings: recombinant D168A mutant, FRET peptide substrate
T2 construct: The NS3/4A construct represented the individual NS3 proteinase domain N-terminally fused with an NS4A co-factor; 6xHis; purchased AnaSpec (Fremont, CA)
Description: as §1, §2, §3

NS3/4A D168A [4] = format: biochemical, HCV genotype 1b, strain HC-J4; settings: fold change in IC50 for the mutant compared to WT
Description: as §1, §2, §3

NS3/4A R155K [5] = biological target: T3, NS3/4A R155K (Hepatitis C virus genotype 1b, UniProt O92972, R1181K); format: biochemical, HCV genotype 1b, strain HC-J4; settings: recombinant R155K mutant, FRET peptide substrate
T3 construct: The NS3/4A construct represented the individual NS3 proteinase domain N-terminally fused with an NS4A co-factor; 6xHis; purchased AnaSpec (Fremont, CA)
Description: as §1, §2, §3

NS3/4A R155K [6] = format: biochemical, HCV genotype 1b, strain HC-J4; settings: fold change in IC50 for the mutant compared to WT
Description: as §1, §2, §3

NS3/4A V36M [7] = biological target: T4, NS3/4A V36M (Hepatitis C virus genotype 1b, UniProt O92972, V1062M); format: biochemical, HCV genotype 1b, strain HC-J4; settings: recombinant V36M mutant, FRET peptide substrate
T4 construct: The NS3/4A construct represented the individual NS3 proteinase domain N-terminally fused with an NS4A co-factor; 6xHis; purchased AnaSpec (Fremont, CA)
Description: as §1, §2, §3

NS3/4A V36M [8] = format: biochemical, HCV genotype 1b, strain HC-J4; settings: fold change in IC50 for the mutant compared to WT
Description: as §1, §2, §3

Structure (SMILES) | CC50 (Huh7 ET cells) | CC90 (Huh7 ET cells) | IC50 (NS3/4A A156T [1]) | NS3/4A A156T FC (NS3/4A A156T [2]) | IC50 (NS3/4A D168A [3]) | NS3/4A D168A FC (NS3/4A D168A [4]) | IC50 (NS3/4A R155K [5]) | NS3/4A R155K FC (NS3/4A R155K [6]) | IC50 (NS3/4A V36M [7]) | NS3/4A V36M FC (NS3/4A V36M [8]) | effect of A156T resistance mutation on efficacy (NS3/4A A156T [1])
O=C(Nc1ccccc1)c1cc(S(=O)(=O)Nc2nc3ncccc3[nH]2)c(SSc2cc(Cl)c(C(=O)Nc3ccccc3)cc2S(=O)(=O)Nc2nc3ncccc3[nH]2)cc1Cl [Compound 1] | > 100 µM | > 100 µM | 0.72 µM | 3.93 | 0.25 µM | 1.4 | 1.75 µM | 9.6 | 0.26 µM | 1.4 | –
Clc1ccc(OCc2nn3c(CCc4nnc5sc(COc6ccc(Cl)cc6)nn45)nnc3s2)cc1 [Compound 2] | 9.99 µM | 22.1 µM | 17.3 µM | 57.57 | 4.45 µM | 14.8 | 5.84 µM | 19.5 | 1.53 µM | 5.1 | –
Cc1n[nH]c(=S)n1Nc1nc(SCc2ccccc2)nc2n[nH]c(Cc3nn[nH]n3)c12 [Compound 3] | > 100 µM | > 100 µM | 16.2 µM | 45.14 | 8.4 µM | 23.3 | 5.53 µM | 15.4 | 1.67 µM | 4.6 | –
Oc1ccccc1-c1nnc2sc3c(Cl)c4nn5c(-c6ccccc6O)nnc5sc4c(Cl)c3nn12 [Compound 4] | > 100 µM | > 100 µM | 6.54 µM | 18.17 | 3.35 µM | 9.3 | 3.73 µM | 10.4 | 0.34 µM | 0.9 | –
Clc1ccc(Nc2nc(SCc3ccccc3)nc3n[nH]c(Cc4nc5ccccc5s4)c23)cc1 [Compound 5] | > 100 µM | > 100 µM | 18.6 µM | 48.95 | 12.7 µM | 33.4 | 9.64 µM | 25.4 | 1.07 µM | 2.8 | –
S=c1[nH]nc(Nc2nc(SCc3ccccc3)nc3n[nH]c(Cc4nn[nH]n4)c23)s1 [Compound 6] | > 100 µM | > 100 µM | 3.08 µM | 3.24 | 1.21 µM | 1.3 | 2.29 µM | 2.4 | 0.99 µM | 1.04 | not affected
S=c1[nH]n2c(COc3cc(Cl)c(OCc4nnc5sc(=S)[nH]n45)cc3Cl)nnc2s1 [Compound 7] | 86.8 µM | 96.3 µM | 1.12 µM | 0.9 | 1.28 µM | 1 | 2.03 µM | 1.6 | 1.4 µM | 1.1 | not affected
COc1cc(C2C(C(=O)Nc3ccc(Cl)c(Cl)c3)=C(C)NC(C)=C2C(=O)Nc2ccc(Cl)c(Cl)c2)ccc1O [Compound 8] | 14.2 µM | 26.6 µM | 17.7 µM | 9.2 | 3.02 µM | 1.6 | 10.9 µM | 5.7 | 1.84 µM | 0.96 | –
